The source of these data is ChEMBL document CHEMBL3045169, “In vitro evaluation of the antibacterial and antifungal activity of some new pyrazolyl-quinazolin-4(3H)-one derivatives” (2012).

Holding throughout (assay type): functional
Assay [1] deals with Staphylococcus aureus. Nature of the assay: Antibacterial activity against Staphylococcus aureus ATCC 9144 by agar cup-plate method relative to penicillin-G. Also on record: concentration or dose not given beside the values.
In assay [2] the test system is Escherichia coli. As to the kind of experiment: Antibacterial activity against Escherichia coli ATCC 25922 at 50 ug/ml by agar cup-plate method. The settings on record: read-out: IZ.
Assay [3] deals with Candida albicans. Nature of the assay: Antifungal activity against Candida albicans ATCC 10231 at 20 ug/ml by agar cup-plate method. To be noted: read-out: IZ.
Assay [4] relates to Bacillus subtilis. As to the kind of experiment: Antibacterial activity against Bacillus subtilis ATCC 6633 by agar cup plate method relative to penicillin-G. Also on record: concentration or dose not given beside the values.
Assay [5] relates to Candida albicans. As to the kind of experiment: Antifungal activity against Candida albicans ATCC 10231 at 10 ug/ml by agar cup-plate method. To be noted: read-out: IZ.
Assay [6] has as its system Bacillus subtilis. Nature of the assay: Antibacterial activity against Bacillus subtilis ATCC 6633 at 50 ug/ml by agar cup plate method. The settings on record: read-out: IZ.
Assay [7] deals with Bacillus subtilis. Nature of the assay: Antibacterial activity against Bacillus subtilis ATCC 6633 at 100 ug/ml by agar cup plate method. To be noted: read-out: IZ.
The test system of assay [8] is Pseudomonas aeruginosa. Nature of the assay: Antibacterial activity against Pseudomonas aeruginosa ATCC 9027 at 50 ug/ml by agar cup-plate method. To be noted: read-out: IZ.
The subject of assay [9] is Staphylococcus aureus. As to the kind of experiment: Antibacterial activity against Staphylococcus aureus ATCC 9144 at 100 ug/ml by agar cup-plate method. The settings on record: read-out: IZ.
Assay [10] has as its system Aspergillus niger. As to the kind of experiment: Antifungal activity against Aspergillus niger ATCC 6275 at 10 ug/ml by agar cup-plate method. To be noted: read-out: IZ.
For assay [11], the system named is Candida albicans. Nature of the assay: Antifungal activity against Candida albicans ATCC 10231 by agar cup-plate method relative to fluconazole. The arrangement: concentration or dose not given beside the values.
The test system of assay [12] is Staphylococcus aureus. Nature of the assay: Antibacterial activity against Staphylococcus aureus ATCC 9144 at 50 ug/ml by agar cup-plate method. To be noted: read-out: IZ.
Assay [13] has as its system Aspergillus niger. As to the kind of experiment: Antifungal activity against Aspergillus niger ATCC 6275 at 20 ug/ml by agar cup-plate method. To be noted: read-out: IZ.
In assay [14] the test system is Escherichia coli. Nature of the assay: Antibacterial activity against Escherichia coli ATCC 25922 at 100 ug/ml by agar cup-plate method. To be noted: read-out: IZ.
Assay [15] has as its system Escherichia coli. Nature of the assay: Antibacterial activity against Escherichia coli ATCC 25922 by agar cup-plate method relative to penicillin-G. Also on record: concentration or dose not given beside the values.
Assay [16] deals with Aspergillus niger. Nature of the assay: Antifungal activity against Aspergillus niger ATCC 6275 by agar cup-plate method relative to fluconazole. Also on record: concentration or dose not given beside the values.
Assay [17] relates to Pseudomonas aeruginosa. As to the kind of experiment: Antibacterial activity against Pseudomonas aeruginosa ATCC 9027 by agar cup-plate method relative to penicillin-G. The arrangement: concentration or dose not given beside the values.
Assay [18] relates to Pseudomonas aeruginosa. As to the kind of experiment: Antibacterial activity against Pseudomonas aeruginosa ATCC 9027 at 100 ug/ml by agar cup-plate method. To be noted: read-out: IZ.

For the compound `O=c1c2cc(I)ccc2nc(Cc2ccccc2Nc2ccccc2)n1NC1=NNC(c2ccccc2)C1` (stereo not drawn), the Activity was determined as 70.87% in the assay with Staphylococcus aureus [1]; 81.79% with Bacillus subtilis [4]; 68.81% in the assay with Candida albicans [11]; 40.81% in the assay on Escherichia coli [15]; 58.12% in the assay with Aspergillus niger [16]; 48.61% in the assay with Pseudomonas aeruginosa [17]. Moreover, the zone of inhibition at 50 µg/mL in the assay with Escherichia coli [2] is 0 mm; in the assay with Bacillus subtilis [6], 18 mm; in the assay with Pseudomonas aeruginosa [8] it was 0 mm; in the assay with Staphylococcus aureus [12], 17 mm. Also, the zone of inhibition at 20 µg/mL in the assay with Candida albicans [3] was 18 mm; in the assay with Aspergillus niger [13] it was 17 mm. In addition, the zone of inhibition at 10 µg/mL in the assay on Candida albicans [5] and with Aspergillus niger [10] was 15 mm in each case. In addition, the zone of inhibition at 100 µg/mL in the assay with Bacillus subtilis [7] stood at 22 mm; in the assay with Staphylococcus aureus [9], 21 mm; in the assay with Escherichia coli [14], 6 mm; with Pseudomonas aeruginosa [18], 7 mm.
